We go through 88 compounds from patent US8980926B2, “2-aminoindole compounds and methods for the treatment of malaria” (Genzyme Corporation, priority 2009, dated 2015).

The subject of the test is P. falciparum strain 3D7. Description: In vitro potency against P. falciparum strain 3D7 (SYBR green/DAPI). The class given is cell-based. Conditions: Plasmodium falciparum, reductions in parasitemia, read-out: IC50 values.

Usually IC50 stands for the concentration needed to halve the response being measured. Regarding `COc1ccc(C2(O)C(N)=Nc3ccc(Cl)cc32)c2ccccc12` (stereo not shown) [Compound 78], the IC50 was 1 to 100 nM.
Then `NC1=Nc2ccc(Cl)cc2C1(O)c1ccncc1` (stereo not shown) [Compound 79], with 1000 to 5000 nM; and `CN(C)c1ccccc1C1(O)C(N)=Nc2ccc(Cl)cc21` (stereo not shown) [Compound 80], with 1 to 100 nM.
Then `NC1=Nc2ccc(Cl)cc2C1(O)c1cccc2cnccc12` (stereo not shown) [Compound 81], with 100 to 500 nM; and `NC1=Nc2ccc(Cl)cc2C1(O)c1cccc2ccsc12` (stereo not shown) [Compound 82], with 1 to 100 nM.
Consider `NC1=Nc2ccc(Cl)cc2C1(O)c1ccc(F)cc1` (stereo not shown) [Compound 83], for which the IC50 lay within 100 to 500 nM.
Then `Cc1cccc(C2(O)C(N)=Nc3ccc(Cl)cc32)c1C` (stereo not shown) [Compound 84], with 100 to 500 nM.
The figure for `NC1=Nc2ccc(Cl)cc2C1(O)c1ccc(O)cc1` (stereo not shown) [Compound 85] is 5000 to 15000 nM; for `COc1ccc(C2(O)C(N)=Nc3ccc(Cl)cc32)c(OC)c1` (stereo not shown) [Compound 86] it is 1 to 100 nM.
For the compound `NC1=Nc2ccc(-c3ccccc3)cc2C1(O)c1ccccc1` (stereo not shown) [Compound 87], the IC50 lay within 100 to 500 nM.
The figure for `N#Cc1ccc2c(c1)C(O)(c1ccccc1)C(N)=N2` (stereo not shown) [Compound 88] is 1000 to 5000 nM; for `NC1=Nc2ccc(Cl)cc2C1(O)c1ccccc1F` (stereo not shown) [Compound 89] it is 100 to 500 nM; for `Cc1ccc(C2(O)C(N)=Nc3ccc(Cl)cc32)c(C)c1` (stereo not shown) [Compound 90] it is 100 to 500 nM.
The figure for `NC1=Nc2ccc(Cl)cc2C1(O)C1CC1` (stereo not shown) [Compound 91] is 100 to 500 nM; for `NC1=Nc2ccc(CCc3ccccc3)cc2C1(O)c1ccccc1` (stereo not shown) [Compound 92] it is 100 to 500 nM.
The figure for `NC1=Nc2ccc(CCCC3CCCCC3)cc2C1(O)c1ccccc1` (stereo not shown) [Compound 93] is 100 to 500 nM; for `NC1=Nc2ccc(Cl)cc2C1(O)c1cccc2nsnc12` (stereo not shown) [Compound 94] it is 1000 to 5000 nM.
With `NC1=Nc2ccc(Cl)cc2C1(O)c1cccc(F)c1F` (stereo not shown) [Compound 95], the IC50 lay in the range of 100 to 500 nM.
The figure for `NC1=Nc2ccc(Cl)cc2C1(O)c1ccccc1C(F)(F)F` (stereo not shown) [Compound 96] is 1 to 100 nM.
Then `CCc1ccccc1C1(O)C(N)=Nc2ccc(Cl)cc21` (stereo not shown) [Compound 97], with 1 to 100 nM.
The figure for `NC1=Nc2ccc(Cl)cc2C1(O)c1ccc(Cl)cc1` (stereo not shown) [Compound 98] is 100 to 500 nM.
Consider `NC1=Nc2ccc(-c3cccnc3)cc2C1(O)c1ccccc1` (stereo not shown) [Compound 99], for which the IC50 lay in the range of 5000 to 15000 nM.
Then `NC(=O)c1ccc2c(c1)C(O)(c1ccccc1)C(N)=N2` (stereo not shown) [Compound 100], with 5000 to 15000 nM; and `CS(=O)(=O)c1ccc2c(c1)C(O)(c1ccccc1)C(N)=N2` (stereo not shown) [Compound 101], with 5000 to 15000 nM.
Then `NC1=Nc2ccc(Cl)cc2C1(O)c1ccc(C(=O)O)cc1` (stereo not shown) [Compound 102], with 5000 to 15000 nM.
The figure for `CC(=O)Nc1ccccc1C1(O)C(N)=Nc2ccc(Cl)cc21` (stereo not shown) [Compound 103] is 5000 to 15000 nM; for `COc1ccc(C#Cc2ccc3c(c2)C(O)(c2ccccc2)C(N)=N3)cc1` (stereo not shown) [Compound 104] it is 100 to 500 nM; for `NC1Nc2ccc(-c3nccs3)cc2C1(O)c1ccccc1` (stereo not shown) [Compound 105] it is 100 to 500 nM.
For `COc1ccc(CCc2ccc3c(c2)C(O)(c2ccccc2)C(N)=N3)cc1` (stereo not shown) [Compound 106], the IC50 is 100 to 500 nM.
Then `NC1=Nc2ccc(Cl)cc2C1(O)c1cncc2ccccc12` (stereo not shown) [Compound 107], with 100 to 500 nM; and `NC1=Nc2ccc(Cl)cc2C1(O)c1ccnc2ccccc12` (stereo not shown) [Compound 108], with 100 to 500 nM.
Then `N#Cc1ccccc1C1(O)C(N)=Nc2ccc(Cl)cc21` (stereo not shown) [Compound 109], with 5000 to 15000 nM; and `COC(=O)c1ccc2c(c1)C(O)(c1ccccc1)C(N)=N2` (stereo not shown) [Compound 110], with 500 to 1000 nM.
The figure for `Cn1ccc2cccc(C3(O)C(N)=Nc4ccc(Cl)cc43)c21` (stereo not shown) [Compound 111] is 1 to 100 nM; for `Cc1cc(C)cc(C2(O)C(N)=Nc3ccc(Cl)cc32)c1` (stereo not shown) [Compound 112] it is 100 to 500 nM; for `NC1=Nc2ccc(Cl)cc2C1(O)c1ccccc1Cl` (stereo not shown) [Compound 113] it is 100 to 500 nM.
On to `NC1=Nc2ccc(Cl)cc2C1(O)c1ccccc1-c1ccccc1Cl` (stereo not shown) [Compound 114], for which the IC50 was in the range of 100 to 500 nM.
With `NC1=Nc2ccc(Cl)cc2C1(O)c1ccccc1-c1ccccc1Br` (stereo not shown) [Compound 115], the IC50 fell in the range of 1 to 100 nM.
As to `NC1=Nc2ccc(Cl)cc2C1(O)C1CCCCC1` (stereo not shown) [Compound 116], the IC50 fell in the range of 100 to 500 nM.
The figure for `NC1=Nc2ccc(Cl)cc2C1(O)c1cccc2ccncc12` (stereo not shown) [Compound 117] is 100 to 500 nM; for `NC1=Nc2ccc(Cl)cc2C1(O)c1ccccc1Br` (stereo not shown) [Compound 118] it is 100 to 500 nM.
The figure for `NC1=Nc2ccc(Cl)cc2C1(O)c1ccccc1N1CCOCC1` (stereo not shown) [Compound 119] is 1 to 100 nM.
The figure for `CS(=O)(=O)c1ccccc1C1(O)C(N)=Nc2ccc(Cl)cc21` (stereo not shown) [Compound 120] is 500 to 1000 nM; for `CSc1ccccc1C1(O)C(N)=Nc2ccc(Cl)cc21` (stereo not shown) [Compound 121] it is 1 to 100 nM; for `COc1ccccc1C1(O)C(N)=Nc2ccc(C)cc21` (stereo not shown) [Compound 122] it is 100 to 500 nM.
As for `COc1ccccc1C1(O)C(N)=Nc2ccc(Br)cc21` (stereo not shown) [Compound 123], the IC50 lay within 1 to 100 nM.
Then `NC1=Nc2ccc(Br)cc2C1(O)Cc1ccccc1` (stereo not shown) [Compound 124], with 100 to 500 nM; and `C#Cc1ccc2c(c1)C(O)(c1ccc(C3(c4ccccc4)OCCO3)cc1)C(N)=N2` (stereo not shown) [Compound 125], with 100 to 500 nM; and `COc1ccc(CC2(O)C(N)=Nc3ccccc32)cc1` (stereo not shown) [Compound 126], with 100 to 500 nM.
Then `NC1=Nc2cccc(Cl)c2C1(O)c1cccc2ccccc12` (stereo not shown) [Compound 127], with 500 to 1000 nM; and `Cn1cc(CC2(O)C(N)=Nc3ccccc32)c2ccccc21` (stereo not shown) [Compound 128], with 100 to 500 nM.
Take `NC1=Nc2ccc(Cl)cc2C1(O)c1ccccc1-c1ccccc1` (stereo not shown) [Compound 129]: the IC50 was in the range of 100 to 500 nM.
The figure for `NC1=Nc2ccc(Cl)cc2C1(O)c1ccccc1N1CCCCC1` (stereo not shown) [Compound 130] is 100 to 500 nM; for `Cc1ccc2c(c1)C(O)(Cc1ccccc1)C(N)=N2` (stereo not shown) [Compound 131] it is 1 to 100 nM; for `COc1ccc2c(c1)C(O)(c1ccccc1OC)C(N)=N2` (stereo not shown) [Compound 132] it is 100 to 500 nM.
Then `COc1ccc2c(c1)C(O)(Cc1ccccc1)C(N)=N2` (stereo not shown) [Compound 133], with 1 to 100 nM; and `COc1ccccc1CC1(O)C(N)=Nc2ccc(Cl)cc21` (stereo not shown) [Compound 134], with 1 to 100 nM; and `Cn1ncc2cccc(C3(O)C(N)=Nc4ccc(Cl)cc43)c21` (stereo not shown) [Compound 135], with 1 to 100 nM.
Then `Cc1csc2c(C3(O)C(N)=Nc4ccc(Cl)cc43)cccc12` (stereo not shown) [Compound 136], with 1 to 100 nM; and `NC1=Nc2ccc(Cl)cc2C1(O)c1nc2ccccc2s1` (stereo not shown) [Compound 137], with 100 to 500 nM.
For `Cn1ncc2ccc(C3(O)C(N)=Nc4ccc(Cl)cc43)cc21` (stereo not shown) [Compound 138], the IC50 fell in the range of 100 to 500 nM.
`NC1=Nc2ccc(Cl)cc2C1(O)Cc1nc2ccccc2s1` (stereo not shown) [Compound 139]: the IC50 lay in the range of 1 to 100 nM.
Then `COc1ccc(Cl)cc1C1(O)C(N)=Nc2ccc(Cl)cc21` (stereo not shown) [Compound 140], with 1 to 100 nM.
Then `CCOc1ccccc1C1(O)C(N)=Nc2ccc(Cl)cc21` (stereo not shown) [Compound 141], with 1 to 100 nM.
Then `Cc1ccc2c(c1)C(O)(c1cccc3ccsc13)C(N)=N2` (stereo not shown) [Compound 143], with 1 to 100 nM; and `NC1=Nc2ccc(Cl)cc2C1(O)c1cc2ccccc2o1` (stereo not shown) [Compound 144], with 1 to 100 nM.
With `COc1ccc(F)cc1C1(O)C(N)=Nc2ccc(Cl)cc21` (stereo not shown) [Compound 145], the IC50 lay in the range of 1 to 100 nM.
For the compound `CCOc1ccc(OC)cc1C1(O)C(N)=Nc2ccc(Cl)cc21` (stereo not shown) [Compound 147], the IC50 was 1 to 100 nM.
The figure for `NC1=Nc2ccc(Cl)cc2C1(O)c1ccc2ncsc2c1` (stereo not shown) [Compound 148] is 100 to 500 nM; for `CN1CCN(c2ccccc2C2(O)C(N)=Nc3ccc(Cl)cc32)CC1` (stereo not shown) [Compound 149] it is 500 to 1000 nM; for `NC1=Nc2ccc(Cl)cc2C1(O)c1cccc2ccoc12` (stereo not shown) [Compound 150] it is 1 to 100 nM.
Then `NC1=Nc2ccc(Cl)cc2C1(O)c1ccccc1OC1CCC1` (stereo not shown) [Compound 151], with 1 to 100 nM; and `COc1ccc(OC(C)C)c(C2(O)C(N)=Nc3ccc(Cl)cc32)c1` (stereo not shown) [Compound 152], with 1 to 100 nM.
The figure for `COc1ccc2c(c1)C(O)(c1cc3ccccc3s1)C(N)=N2` (stereo not shown) [Compound 153] is 1 to 100 nM; for `CC(C)Oc1ccc(F)cc1C1(O)C(N)=Nc2ccc(Cl)cc21` (stereo not shown) [Compound 154] it is 1 to 100 nM; for `CCOc1ccc(Cl)cc1C1(O)C(N)=Nc2ccc(Cl)cc21` (stereo not shown) [Compound 155] it is 1 to 100 nM.
In the case of `CC(C)Oc1ccc(Cl)cc1C1(O)C(N)=Nc2ccc(Cl)cc21` (stereo not shown) [Compound 156], the IC50 was in the range of 1 to 100 nM.
`NC1=Nc2ccc(Cl)cc2C1(O)c1cc(Cl)ccc1OC1CCC1` (stereo not shown) [Compound 157]: the IC50 was 1 to 100 nM.
Regarding `COc1ccc(OC2CCC2)c(C2(O)C(N)=Nc3ccc(Cl)cc32)c1` (stereo not shown) [Compound 158], the IC50 fell in the range of 1 to 100 nM.
Then `COc1ccc2c(c1)C(O)(c1cccc3ccsc13)C(N)=N2` (stereo not shown) [Compound 159], with 1 to 100 nM; and `NC1=Nc2ccc(Cl)cc2C1(O)Cc1cc2ccccc2o1` (stereo not shown) [Compound 160], with 1 to 100 nM; and `NC1=Nc2ccc(Cl)cc2C1(O)c1ccccc1N1CCCCCC1` (stereo not shown) [Compound 162], with 1 to 100 nM.
The figure for `CCSc1ccccc1C1(O)C(N)=Nc2ccc(Cl)cc21` (stereo not shown) [Compound 163] is 1 to 100 nM; for `NC1=Nc2ccc(Cl)cc2C1(O)c1cc(F)ccc1OC1CCC1` (stereo not shown) [Compound 164] it is 1 to 100 nM; for `COc1ccc(OC2CC2)c(C2(O)C(N)=Nc3ccc(Cl)cc32)c1` (stereo not shown) [Compound 165] it is 1 to 100 nM.
The figure for `NC1=Nc2ccc(Br)cc2C1(O)c1cccc2ccsc12` (stereo not shown) [Compound 166] is 1 to 100 nM; for `COc1ccc2c(c1)C(O)(c1ccccc1N1CCOCC1)C(N)=N2` (stereo not shown) [Compound 167] it is 100 to 500 nM; for `CC(C)c1ccccc1CC1(O)C(N)=Nc2ccc(Cl)cc21` (stereo not shown) [Compound 168] it is 1 to 100 nM.
